Measured values published in patent publication US20260085081A1, “PHOSPHATIDYLAMINE COMPOUNDS INCLUDING A PLURALITY OF TERTIARY AMINO GROUP STRUCTURES AND COMPOSITIONS THEREOF” (PEKING UNIVERSITY, priority 2022, published 2026).

Key:
[1] = test system: Fluc-mRNA (luciferase expression); assay: In vivo transfection efficiency of Fluc-mRNA lipid nanoparticles after intramuscular injection; set-up: species or system mice; settings: for expression in vivo compared with control MC3 / enhancement of in vivo expression with respect to control MC3: DOPE group, weight ratio 10:1; for expression in vivo compared with control MC3 / in vivo transfection (expression, FIG. 5): 3 μg Fluc-mRNA/mouse; for enhancement of in vivo expression with respect to control MC3: 3 g Fluc-mRNA/mouse; for Intramuscular injection (PL/MC3) expression strength level: ratio of expression PL/MC3; for in vivo transfection (expression, FIG. 5): weight ratio lipid nanoparticle/RNA 10:1, DOPE or DSPC group
Protocol: 6 h after intramuscular injection of mRNA LNPs, mice were injected intraperitoneally with 0.2 mL […] (20 mg/mL PBS solution). After 10 min, mice were anesthetized with isoflurane in oxygen in a ventilated anesthesia room and imaged with an imaging system (IVIS, PerkinElmer), and luminescence was quantified using Living Image software (PerkinElmer).

white adipocyte = assay: White adipocyte administration, expression relative to SM102; assay type: cell-based; settings: for White adipocyte administration (PL/SM102) expression strength level: ratio of expression PL/SM102; for expression compared with control SM102: white adipocyte administration
Source text: (§1) Finally, the expression levels of lipid nanoparticles with a plurality of tertiary amine groups from the embodiments of the present disclosure after intramuscular injection, white adipocyte administration, and intraperitoneal injection are summarized, and compared with lipid nanoparticles prepared from commercially available cationic lipids MC3 and SM102. […] However, the expression rates of the phosphatidylamine lipids with a plurality of tertiary amine groups from embodiments of the present disclosure are higher than that of SM102.

adipose tissue = assay: Intraperitoneal injection of Fluc-mRNA LNPs, expression and distribution; assay type: in vivo, mice; settings: for expression compared with control SM102: intraperitoneal injection; for Intraperitoneal injection (PL/SM102) expression strength level: ratio of expression PL/SM102
Protocol: FIG. 10 illustrates the effect of Fluc-mRNA LNPs composed of different structural cationic lipids on the mRNA delivery efficiency after intraperitoneal administration according to some embodiments of the present disclosure. Targeting and expression of PL lipids on adipose tissue after intraperitoneal administration is also evaluated. […] That is to say, the PL lipid structure with the plurality of tertiary amino group structures may enhance the selective targeting of visceral adipocytes. […]
as §1

[2] = Summary of the strongest expressions over the administration routes; settings: strongest level of the three administrations
Source text: as §1

SMILES: CCCCCCCCCCCCN(CCCCCCCCCCCC)CCCN1CCN(CCCNP(=O)(OCCCCCCCCOC(=O)C(CC)CCCCCC)OCCCCCCCCOC(=O)C(CC)CCCCCC)CC1 (stereo not shown) [PL57]
- expression in vivo compared with control MC3 [1]: better than that of control MC3
- enhancement of in vivo expression with respect to control MC3 [1]: an order of magnitude enhancement
- Intramuscular injection (PL/MC3) expression strength level [1]: A (A: ≥2)
- in vivo transfection (expression, FIG. 5) [1]: expressed
- White adipocyte administration (PL/SM102) expression strength level (white adipocyte): B (B: ≥1 and <2)
- expression compared with control SM102 (white adipocyte): superior to that of the control SM102
- expression compared with control SM102 (adipose tissue): superior to that of the control SM102
- Intraperitoneal injection (PL/SM102) expression strength level (adipose tissue): A (A: ≥2)
- Summary of the strongest expressions [2]: A (A: ≥2)

SMILES: CCCCCCCCCCCCN(CCCCCCCCCCCC)CCCN1CCN(CCCNP(=O)(OCCCCCCOC(=O)C(CC)CCCCCC)OCCCCCCOC(=O)C(CC)CCCCCC)CC1 (stereo not shown) [PL54]
- Intramuscular injection (PL/MC3) expression strength level [1]: A (A: ≥2)
- in vivo transfection (expression, FIG. 5) [1]: expressed
- White adipocyte administration (PL/SM102) expression strength level (white adipocyte): B (B: ≥1 and <2)
- expression compared with control SM102 (white adipocyte): superior to that of the control SM102
- expression compared with control SM102 (adipose tissue): superior to that of the control SM102
- Intraperitoneal injection (PL/SM102) expression strength level (adipose tissue): B (B: ≥1 and <2)
- Summary of the strongest expressions [2]: A (A: ≥2)

SMILES: CCCCCCCCCCCCN(CCCCCCCCCCCC)CCCN1CCN(CCCNP(=O)(OCCCCCCOC(=O)C(CCCCCC)CCCCCCCC)OCCCCCCOC(=O)C(CCCCCC)CCCCCCCC)CC1 (stereo not shown) [PL55]
- expression in vivo compared with control MC3 [1]: better than that of control MC3
- enhancement of in vivo expression with respect to control MC3 [1]: an order of magnitude enhancement
- Intramuscular injection (PL/MC3) expression strength level [1]: A (A: ≥2)
- in vivo transfection (expression, FIG. 5) [1]: expressed
- White adipocyte administration (PL/SM102) expression strength level (white adipocyte): B (B: ≥1 and <2)
- expression compared with control SM102 (white adipocyte): superior to that of the control SM102
- expression compared with control SM102 (adipose tissue): superior to that of the control SM102
- Intraperitoneal injection (PL/SM102) expression strength level (adipose tissue): B (B: ≥1 and <2)
- Summary of the strongest expressions [2]: A (A: ≥2)

SMILES: CCCCCCCCCCC(O)CN(CCCN1CCN(CCCNP(=O)(OCCCCCCCCOC(=O)C(CC)CCCC)OCCCCCCCCOC(=O)C(CC)CCCC)CC1)CC(O)CCCCCCCCCC (stereo not shown) [PL78]
- White adipocyte administration (PL/SM102) expression strength level (white adipocyte): B (B: ≥1 and <2)
- expression compared with control SM102 (white adipocyte): superior to that of the control SM102
- expression compared with control SM102 (adipose tissue): superior to that of the control SM102
- Intraperitoneal injection (PL/SM102) expression strength level (adipose tissue): B (B: ≥1 and <2)
- Summary of the strongest expressions [2]: B (B: ≥1 and <2)

SMILES: CCCCCCCCCCCCN(CCCCCCCCCCCC)CCCN1CCN(CCCNP(=O)(OCCCCCCOC(=O)C(CC)CCCC)OCCCCCCOC(=O)C(CC)CCCC)CC1 (stereo not shown) [PL53]
- expression in vivo compared with control MC3 [1]: better than that of control MC3
- enhancement of in vivo expression with respect to control MC3 [1]: an order of magnitude enhancement
- Intramuscular injection (PL/MC3) expression strength level [1]: A (A: ≥2)
- in vivo transfection (expression, FIG. 5) [1]: expressed
- White adipocyte administration (PL/SM102) expression strength level (white adipocyte): B (B: ≥1 and <2)
- expression compared with control SM102 (white adipocyte): superior to that of the control SM102
- Intraperitoneal injection (PL/SM102) expression strength level (adipose tissue): C (C: ≥0.1 and <1)
- Summary of the strongest expressions [2]: A (A: ≥2)

SMILES: CC/C=C\C/C=C\C/C=C\C/C=C\C/C=C\CCCC(=O)OCCCCCCOP(=O)(NCCCN1CCN(CCCN(CCCCCCCCCCCC)CCCCCCCCCCCC)CC1)OCCCCCCOC(=O)CCC/C=C\C/C=C\C/C=C\C/C=C\C/C=C\CC [PL60]
- White adipocyte administration (PL/SM102) expression strength level (white adipocyte): C (C: ≥0.1 and <1)
- Intraperitoneal injection (PL/SM102) expression strength level (adipose tissue): D (D: <0.1)
- Summary of the strongest expressions [2]: C (C: ≥0.1 and <1)

SMILES: CCCCC/C=C\C/C=C\CCCCCCCCOP(=O)(NCCCN(CCCCCCCCCCCC)CCc1ccc(CCN(CCCCCCCCCCCC)CCCCCCCCCCCC)cc1)OCCCCCCCC/C=C\C/C=C\CCCCC [PL22]
- White adipocyte administration (PL/SM102) expression strength level (white adipocyte): C (C: ≥0.1 and <1)
- Intraperitoneal injection (PL/SM102) expression strength level (adipose tissue): D (D: <0.1)
- Summary of the strongest expressions [2]: C (C: ≥0.1 and <1)

SMILES: CCCCCCCCCCCCN(CCCCCCCCCCCC)CCCN1CCN(CCCNP(=O)(OCCCCCCCCOC(=O)C(CCCCCC)CCCCCCCC)OCCCCCCCCOC(=O)C(CCCCCC)CCCCCCCC)CC1 (stereo not shown) [PL58]
- Intramuscular injection (PL/MC3) expression strength level [1]: A (A: ≥2)
- in vivo transfection (expression, FIG. 5) [1]: expressed
- White adipocyte administration (PL/SM102) expression strength level (white adipocyte): C (C: ≥0.1 and <1)
- Intraperitoneal injection (PL/SM102) expression strength level (adipose tissue): C (C: ≥0.1 and <1)
- Summary of the strongest expressions [2]: A (A: ≥2)

SMILES: CCCCC/C=C\C/C=C\C/C=C\C/C=C\CCCC(=O)OCCCCCCOP(=O)(NCCCN1CCN(CCCN(CCCCCCCCCCCC)CCCCCCCCCCCC)CC1)OCCCCCCOC(=O)CCC/C=C\C/C=C\C/C=C\C/C=C\CCCCC [PL59]
- White adipocyte administration (PL/SM102) expression strength level (white adipocyte): A (A: ≥2)
- expression compared with control SM102 (white adipocyte): superior to that of the control SM102
- Intraperitoneal injection (PL/SM102) expression strength level (adipose tissue): D (D: <0.1)
- Summary of the strongest expressions [2]: A (A: ≥2)

SMILES: CCCCC/C=C\C/C=C\CCCCCCCCOP(=O)(NCCCN(CC(O)CCCCCCCCCC)CC(O)CN(CC(O)CCCCCCCCCC)CC(O)CCCCCCCCCC)OCCCCCCCC/C=C\C/C=C\CCCCC (stereo not shown) [PL19]
- White adipocyte administration (PL/SM102) expression strength level (white adipocyte): C (C: ≥0.1 and <1)
- Intraperitoneal injection (PL/SM102) expression strength level (adipose tissue): D (D: <0.1)
- Summary of the strongest expressions [2]: C (C: ≥0.1 and <1)

SMILES: CCCCC/C=C\C/C=C\CCCCCCCCOP(=O)(NCCCN(CCCN(CC(O)CCCCCCCCCC)CC(O)CCCCCCCCCC)CC(O)CCCCCCCCCC)OCCCCCCCC/C=C\C/C=C\CCCCC (stereo not shown) [PL18]
- Intramuscular injection (PL/MC3) expression strength level [1]: A (A: ≥2)
- in vivo transfection (expression, FIG. 5) [1]: expressed
- White adipocyte administration (PL/SM102) expression strength level (white adipocyte): C (C: ≥0.1 and <1)
- Intraperitoneal injection (PL/SM102) expression strength level (adipose tissue): D (D: <0.1)
- Summary of the strongest expressions [2]: A (A: ≥2)

SMILES: CCCCC/C=C\C/C=C\CCCCCCCCOP(=O)(NCCCN(CCCCCCCCCCCC)CCc1ccc(CCN(C)C)cc1)OCCCCCCCC/C=C\C/C=C\CCCCC [PL21]
- White adipocyte administration (PL/SM102) expression strength level (white adipocyte): B (B: ≥1 and <2)
- expression compared with control SM102 (white adipocyte): superior to that of the control SM102
- Intraperitoneal injection (PL/SM102) expression strength level (adipose tissue): C (C: ≥0.1 and <1)
- Summary of the strongest expressions [2]: B (B: ≥1 and <2)

SMILES: CCCCCCCCCCCCN(CCCCCCCCCCCC)CCCN1CCN(CCCNP(=O)(OCCCCCCCCOC(=O)C(CC)CCCC)OCCCCCCCCOC(=O)C(CC)CCCC)CC1 (stereo not shown) [PL56]
- expression in vivo compared with control MC3 [1]: better than that of control MC3
- enhancement of in vivo expression with respect to control MC3 [1]: an order of magnitude enhancement
- Intramuscular injection (PL/MC3) expression strength level [1]: A (A: ≥2)
- in vivo transfection (expression, FIG. 5) [1]: expressed
- White adipocyte administration (PL/SM102) expression strength level (white adipocyte): B (B: ≥1 and <2)
- expression compared with control SM102 (white adipocyte): superior to that of the control SM102
- expression compared with control SM102 (adipose tissue): superior to that of the control SM102
- Intraperitoneal injection (PL/SM102) expression strength level (adipose tissue): A (A: ≥2)
- Summary of the strongest expressions [2]: A (A: ≥2)

SMILES: CCCCC/C=C\C/C=C\CCCCCCCCOP(=O)(NCCCN1CCN(CCCN(CC(O)CCCCCCCCCC)CC(O)CCCCCCCCCC)CC1)OCCCCCCCC/C=C\C/C=C\CCCCC (stereo not shown) [PL23]
- Intramuscular injection (PL/MC3) expression strength level [1]: A (A: ≥2)
- in vivo transfection (expression, FIG. 5) [1]: expressed
- White adipocyte administration (PL/SM102) expression strength level (white adipocyte): C (C: ≥0.1 and <1)
- Intraperitoneal injection (PL/SM102) expression strength level (adipose tissue): C (C: ≥0.1 and <1)
- Summary of the strongest expressions [2]: A (A: ≥2)

SMILES: CCCCCCCCC(CCCCCCCC)OC(=O)CCCCCCCOP(=O)(NCCCN1CCN(CCCN(CCCCCCCC(=O)OC(CCCCCCCC)CCCCCCCC)CCCCCCCC(=O)OC(CCCCCCCC)CCCCCCCC)CC1)OCCCCCCCC(=O)OC(CCCCCCCC)CCCCCCCC [PL38]
- White adipocyte administration (PL/SM102) expression strength level (white adipocyte): C (C: ≥0.1 and <1)
- Intraperitoneal injection (PL/SM102) expression strength level (adipose tissue): D (D: <0.1)
- Summary of the strongest expressions [2]: C (C: ≥0.1 and <1)
